US20170196834A1, “PREPARATION AND APPLICATION OF FLAVONOL AS BRAIN-TARGETING SYNERGIST” (GUANGDONG PHARMACEUTICAL UNIVERSITY, priority 2014, published 2017)
Where two headings read alike, the source gives them in different places.

Columns and labels:
MCAO forebrain ischemia = MCAO forebrain ischemia rats, improvement rate of cerebral infarction area (Example 4); assay type: in vivo; conditions: gavage, 7 days after administration
Protocol: In addition, 30 rats of MCAO forebrain ischemia were prepared, and they were administered solvent saline, 100 mg/kg LXN3, and resveratrol by gavage at 20 ml/kg, 10 rats per group; […]

[1] = Resveratrol in blood and brain tissues 0.5 h after intragastric administration, UPLC-MS (Example 4); assay type: in vivo; conditions: rat, oral, SD rats, 100 mg/kg resveratrol, 0.5 h after administration
Protocol: Treatment Group: LXN3 was made into suspension. 5 SD rats were administered the suspension at the dose of 100 mg/kg resveratrol and the volume of 20 ml/kg by intragastric administration;
Control group: Resveratrol was made into suspension. 5 SD rats were administered the suspension at the dose of 100 mg/kg resveratrol and the volume of 20 ml/kg by intragastric administration;
The rats were derw blood 0.5 h after administration and then sacrificed under anaesthesia. Brain tissues were taken to prepare brain homogenates. The content of resveratrol in the blood and brain tissues were detected by UPLC-MS.

With `Oc1ccc(C=Cc2cc(O)cc(O)c2)cc1` [Resveratrol] the “Improvement rate of cerebral infarction area” value (MCAO forebrain ischemia) was 20.1 ± 8.6%, the concentration at 0.5 h ([1]; brain, read-out: Resveratrol content in brain tissues) was 3.12 ± 1.29 ng/g and the concentration at 0.5 h ([1]; plasma, read-out: Plasma concentration of resveratrol) was 5580 ± 1280 ng/mL.
